According to US8628963B2, “Medium composition comprising neuropeptide Y for the generation, maintenance, prolonged undifferentiated growth of pluripotent stem cells and method of culturing pluripotent stem cell using the same” (Korea Research Institute of Bioscience and Biotechnology, priority 2009, dated 2014):
Entries after “also recorded” stand apart in the source; their conditions may differ.

What was measured:
[1] = tested on: human embryonic stem cells; assay: Feeder-free culture: maintenance of undifferentiated state (morphology, ALP staining, hESC markers); format: cell-based; conditions: 3 μM antagonist in NPY medium
Protocol: Each experiment was carried out at least three times. […] Error bars represent standard error of the mean (n=3).

[2] = tested on: phospho-AKT in H9 cells; assay: Western blot of NPY signalling: AKT phosphorylation; format: cell-based, human; conditions: 1 μM NPY
Protocol: (§1) The membranes were probed with the indicated antibodies, and β-actin was used as a loading control. For protein quantification, the blots were scanned, and the bands were quantified using densitometry (a-c, lower panels). The data are presented as the mean±SE (n=3). **p<0.01, *p<0.05, by t-test.
(§2) The supernatant was re-centrifuged for 10 min, and protein concentrations determined using the BCA protein assay kit (Pierce, Rockford, Ill.). Proteins (20 μg) were fractionated by SDS polyacrylamide gel electrophoresis (PAGE), and electrotransferred to polyvinylidene fluoride (PVDF) membranes (Millipore Corp, Bedford, Mass.). Membranes were blocked in PBS containing 0.1% Tween-20 and 5% non-fat milk for 2 hrs at room temperature, and probed with primary antibodies diluted in PBS/0.2% BSA for 1 hr. After washing, membranes were incubation with the corresponding secondary anti-rabbit HRP-conjugated or anti-mouse HRP-conjugated antibodies (Amersham, Arlington Heights, Ill.), and the bands were visualized using the ECL Advance kit (Amersham). Bands were analyzed for density with Image Gauge software (Fuji Photo Film GMBH, D) and normalized to loading control (β-actin) bands. All experiments were performed in triplicate. Error bars represent standard error of the mean (n=3).

[3] = tested on: phospho-ERK1/2 in H9 cells; assay: Western blot of NPY signalling: ERK1/2 phosphorylation; format: cell-based, human; conditions: 30 min pretreatment with receptor antagonist (3 μM in FIG. 11 legend), 1 μM NPY
Protocol: as §1, §2

[4] = tested on: phospho-CREB in H9 cells; assay: Western blot / immunohistochemistry of NPY signalling: CREB phosphorylation; format: cell-based, human; conditions: 1 μM NPY; for Effect on NPY-mediated CREB phosphorylation: pretreatment with kinase inhibitor, inhibition appeared incomplete
Protocol: as §1
For immunostaining, cells were plated on matrigel-coated 4-well Lab-Tek chamber slides (Nunc, Naperville, Ill.) and cultured for 5 days under described conditions. […] Cells were incubated for 2 hrs at 4° C. with respective primary antibodies diluted in PBS/0.2% BSA. After washing, cells were incubated with FITC- or Alexa 594-conjugated secondary antibodies (Invitrogen) in PBS/0.2% BSA for 1 hr at room temperature. Cells were counterstained using 10 μg/ml DAPI (4′,6-diamidino-2-phenylindole). Chamber slides were analyzed by an Olympus microscope or Axiovert 200M microscope (Carl Zeiss, Gottingen, Germany).
as §2

[5] = tested on: H9 hESCs; assay: BrdU incorporation (hESC proliferation); format: cell-based, human; conditions: inhibitor 10 μM (FIG. 4b), NPY medium
Protocol: The proliferation rate of H9 hESCs cultured using the indicated media was measured using BrdU incorporation. […] Upper panels: representative images of BrdU+ cells. Bar=100 μm. Lower panels: Quantification of BrdU+ cells. The relative number of BrdU+ cells per field of vision was quantified and is presented as the percentage of the total number of cells counted.
Human embryonic stem cells were grown on matrigel-coated 4-well LabTec chamber slides for 4 days for the 5-bromo-2-deoxyuridine (BrdU; BD Pharmingen, San Diego) incorporation assays.
For BrdU incorporation, the cells were incubated in the presence of 30 μM BrdU for 1 hr at 37° C. […] After washing, the cells were incubated with the anti-BrdU antibody in PBS supplemented with 3% BSA for 1 hr, and then incubated with a FITC-conjugated secondary antibody (Invitrogen) for 30 min. The nuclei were stained with DAPI and examined using an Olympus microscope. The mean number of BrdU+ cells per field of vision was determined. At least four fields of vision per coverslip were counted.

[6] = tested on: H9 cells; assay: Growth efficiency test (cell number); format: cell-based, human; conditions: TGFβ addition (1 ng/ml) to N2/B27 medium with NPY, compared with MEF-CM and UM supplemented with NPY
Protocol: Comparison of the growth efficiency of H9 cells cultured using the indicated media for 6 days by measuring the cell number as described in Materials and Methods. The data are presented as the mean±SE (n=3). **p<0.01, *p<0.02, by t-test.
hESC clumps (100×100 μm; approximately 70-90 cells per clump) was seeded evenly on a 35 mm culture dish coated with Matrigel in a final volume of 2 ml. The cells were plated to a cell density of approximately 5×10^5 cells per 35 mm culture dish. The plated cells were allowed to grow for 6 days under described culture conditions. To determine the number of cells, the cells were washed with PBS and trypsinized. The cell suspension was mixed with a 0.4% (wt/vol) trypan blue solution, and the number of live cells was determined using a hemocytometer. Each trial was performed in triplicate.

NC(N)=NCCC[C@@H](NC(=O)C(c1ccccc1)c1ccccc1)C(=O)NCc1ccc(O)cc1 [BIBP3226]
Maintenance of undifferentiated state in NPY medium in presence of antagonist (morphology; ALP, OCT4, SOX2, hTERT, TDGF) [1]: fail to maintain in an undifferentiated state; also recorded: loss of undifferentiated human embryonic stem cells
Effect on NPY-mediated AKT activation ([2]; 30 min pretreatment with receptor antagonist (3 μM in FIG. 11 legend)): significantly reduced
Effect on NPY-mediated ERK activation [3]: significantly reduced
Effect on NPY-mediated up-regulation of p-CREB ([4]; pretreatment with receptor antagonist): partially blocked

O=S(=O)(NCCNC/C=C/c1ccc(Br)cc1)c1cccc2cnccc12 [H89]
Effect on NPY-stimulated BrdU incorporation [5]: potent in suppressing NPY-stimulated BrdU incorporation
Effect on NPY-mediated CREB phosphorylation [4]: blocked

N#CC(=C(/N)Sc1ccccc1N)/C(C#N)=C(\N)Sc1ccccc1N [U0126]
Effect on NPY-stimulated BrdU incorporation [5]: potent in suppressing NPY-stimulated BrdU incorporation
Effect on NPY-mediated AKT activation ([2]; pretreatment with kinase inhibitor (10 μM in FIG. 12 legend)): inhibited
Effect on NPY-mediated CREB phosphorylation [4]: blocked

TGFβ
Effect on growth efficiency (cell number) [6]: did not affect the growth efficiency
